Paper PMC11071649, “Synthesis and Selective Anticancer Activity Evaluation of 2-phenylacrylonitrile Derivatives as Tubulin Inhibitors” (Current Medicinal Chemistry, 2024)

Key:
Type in all cases: cell-based, human
[1] = test system: HCT116 colectal cancer cell; assay: MTT anti-proliferative assay, HCT116; details: for IC50: MTT, 48 h, read-out: IC50 HCT-116
Procedure, shortened: (§1)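 Anti-proliferative effect is measured with the MTT assay, which reports inhibition of net cell growth. Cells come from ATCC, are maintained in DMEM with FBS and are seeded into 96-well plates before treatment.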

[2] = test system: MCF-10A normal breast cell; assay: MTT assay, MCF-10A normal cells; details: 48 h
Procedure, shortened: as §1

A549 lung cancer cell = assay: MTT anti-proliferative assay, A549; details: for IC50: MTT, 48 h
Procedure, shortened: as §1

AGS gastric cancer cell = assay: MTT anti-proliferative assay, AGS; details: for IC50: MTT, 48 h
Procedure, shortened: as §1

[3] = test system: HeLa cervical cancer cell; assay: MTT anti-proliferative assay, HeLa; details: MTT, 48 h
Procedure, shortened: as §1

MCF-7 breast cancer cell = assay: MTT anti-proliferative assay, MCF-7; details: MTT, 48 h
Procedure, shortened: as §1

HepG2 hepatoma cell = assay: MTT anti-proliferative assay, HepG2; details: MTT, 48 h; read-out: IC50 HepG-2
Procedure, shortened: as §1

[4] = test system: SGC-7901 early differentiation gastric cancer cell; assay: MTT anti-proliferative assay, SGC-7901; details: MTT, 48 h
Procedure, shortened: as §1

[5] = test system: Raji B lymphoblastoid cell; assay: MTT anti-proliferative assay, Raji; details: for IC50: MTT, 48 h, read-out: IC50 Raji
Procedure, shortened: as §1

[6] = test system: BEL-7402 liver cancer cell; assay: MTT anti-proliferative assay, BEL-7402; details: MTT, 48 h
Procedure, shortened: as §1

[7] = test system: MGC-803 late stage differentiation gastric cancer cell; assay: MTT anti-proliferative assay, MGC-803; details: MTT, 48 h
Procedure, shortened: as §1

[8] = test system: diffuse large B-cell lymphoma SU-DHL-10 cell; assay: MTT anti-proliferative assay, SU-DHL-10; details: for IC50: MTT, 48 h, read-out: IC50 SU-DHL-10
Procedure, shortened: as §1

L-02 normal liver cell = assay: MTT assay, L-02 normal cells; details: 48 h
Procedure, shortened: as §1

Structure (SMILES)	IC50 [1] [µM]	IC50 [2] [µM]	IC50 (A549 lung cancer cell) [µM]	IC50 (AGS gastric cancer cell) [µM]	IC50 [3] [µM]	IC50 (MCF-7 breast cancer cell) [µM]	IC50 (HepG2 hepatoma cell) [µM]	IC50 [4] [µM]	IC50 [5] [µM]	IC50 [6] [µM]	IC50 [7] [µM]	IC50 [8] [µM]	IC50 (L-02 normal liver cell) [µM]	SI (selectivity index), IC50 (L-02)/IC50 (SU-DHL-10) [8]	SI (selectivity index), IC50 (L-02)/IC50 (AGS) (AGS gastric cancer cell)	SI (selectivity index), IC50 (L-02)/IC50 (A549) (A549 lung cancer cell)	SI (selectivity index), IC50 (L-02)/IC50 (Raji) [5]	SI (selectivity index), IC50 (L-02)/IC50 (HCT-116) [1]
N#C/C(=C\c1ccccc1F)c1ccc(C(F)(F)F)cc1 [Compound 1f2g]	> 100	> 100	> 100	> 100	> 100	> 100	> 100	> 100	> 100	> 100	> 100	> 100	> 100	–	–	–	–	–
N#C/C(=C\c1cccc(F)c1)c1ccc(C(F)(F)F)cc1 [Compound 1f2h]	> 100	> 100	> 100	> 100	> 100	> 100	> 100	> 100	> 100	> 100	> 100	58.4 ± 9	> 100	> 1.7	–	–	–	–
N#C/C(=C\c1ccccc1Br)c1ccc(C(F)(F)F)cc1 [Compound 1f2i]	> 100	> 100	> 100	42 ± 11.7	> 100	> 100	> 100	> 100	> 100	> 100	> 100	> 100	> 100	–	> 2.3	–	–	–
N#C/C(=C\c1c(F)cccc1Cl)c1ccc(C(F)(F)F)cc1 [Compound 1f2j]	> 100	> 100	> 100	> 100	> 100	> 100	> 100	> 100	> 100	> 100	> 100	> 100	> 100	–	–	–	–	–
N#C/C(=C\c1ccc(C(F)(F)F)cc1)c1ccc(C(F)(F)F)cc1 [Compound 1f2k]	> 100	> 100	47.8 ± 4	53.2 ± 13.2	> 100	> 100	> 100	> 100	77.4 ± 13.6	> 100	> 100	> 100	> 100	–	> 1.8	> 2.0	–	–
N#C/C(=C\c1cccc(C(F)(F)F)c1)c1ccc(C(F)(F)F)cc1 [Compound 1f2l]	> 100	> 100	> 100	> 100	> 100	> 100	> 100	> 100	72.1 ± 7.2	> 100	> 100	50.1 ± 20.9	> 100	> 1.9	–	–	> 1.3	–
N#C/C(=C\c1ccccc1C(F)(F)F)c1ccc(C(F)(F)F)cc1 [Compound 1f2m]	> 100	> 100	> 100	> 100	> 100	> 100	> 100	> 100	> 100	> 100	> 100	> 100	> 100	–	> 2.1	> 2.6	–	> 1.7
Cc1ccc(/C=C(\C#N)c2ccc(C(F)(F)F)cc2)cc1 [Compound 1f2n]	57.3 ± 3.2	> 100	37.9 ± 1	46.4 ± 15	> 100	> 100	> 100	> 100	> 100	> 100	> 100	> 100	> 100	–	> 2.4	–	–	–
Cc1cccc(/C=C(\C#N)c2ccc(C(F)(F)F)cc2)c1 [Compound 1f2o]	> 100	> 100	> 100	41.2 ± 1.1	> 100	> 100	> 100	> 100	> 100	> 100	> 100	> 100	> 100	–	–	–	–	–
CCc1ccc(/C=C(\C#N)c2ccc(C(F)(F)F)cc2)cc1 [Compound 1f2p]	> 100	> 100	> 100	> 100	> 100	> 100	> 100	> 100	> 100	> 100	> 100	> 100	> 100	–	–	–	–	–
